For one series, the target named is T1, human P2X7 (Homo sapiens, UniProt Q99572).
T1 construct: 1321N1 cells stably expressing the full length human P2X7 gene (1321N1-hP2X7)
T1 sequence (Q99572 1-595): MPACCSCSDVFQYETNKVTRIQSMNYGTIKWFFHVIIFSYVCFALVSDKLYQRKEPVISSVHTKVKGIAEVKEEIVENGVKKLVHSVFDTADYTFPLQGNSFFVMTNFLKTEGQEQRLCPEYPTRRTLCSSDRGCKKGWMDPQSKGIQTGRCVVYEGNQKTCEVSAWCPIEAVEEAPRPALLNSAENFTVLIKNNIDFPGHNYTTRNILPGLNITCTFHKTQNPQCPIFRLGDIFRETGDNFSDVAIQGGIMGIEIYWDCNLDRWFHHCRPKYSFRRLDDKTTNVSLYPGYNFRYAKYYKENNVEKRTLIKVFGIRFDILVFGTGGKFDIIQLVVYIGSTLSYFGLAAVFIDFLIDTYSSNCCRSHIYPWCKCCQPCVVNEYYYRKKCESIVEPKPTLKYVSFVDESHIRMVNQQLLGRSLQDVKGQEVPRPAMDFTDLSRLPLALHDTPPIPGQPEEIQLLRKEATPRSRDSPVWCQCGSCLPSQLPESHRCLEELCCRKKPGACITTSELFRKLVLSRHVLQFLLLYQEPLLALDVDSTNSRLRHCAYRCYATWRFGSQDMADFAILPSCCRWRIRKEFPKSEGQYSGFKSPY
Put plainly: Intracellular Calcium Flux (FLIPR) Assay. It is filed as cell-based. The following applies: 1321N1 cells stably expressing full length human P2X7; agonist 100 μM BzATP; fluo-3 calcium flux; read-out: FLIPR pIC50 hP2X7-1321n1 (converted). As for the experimental part: Stock solutions of compounds were prepared from powders as a 10 mM DMSO stock solution. These solutions were stored at RT during the two week period of these experiments to prevent freeze-thaw of the DMSO stocks. The DMSO stocks were added to the appropriate assay buffer at a concentration of 10 μM, and then diluted serially to the final concentrations that were tested. No observable precipitate was formed at any time during this process. The aqueous solutions of compounds as well as ATP (Sigma A7699) and BzATP (Sigma B6396) were prepared fresh for each day of experiment.
1321N1 cells stably expressing the full length human P2X7 gene (1321N1-hP2X7) and HEK293 cells stably expressing the full length rat P2X7 gene (HEK293-rP2X7) were obtained from the Roche Cell Culture Facility. 1321N1-hP2X7 cells were grown in Dulbecco's Modified Eagle's Medium (DMEM) high glucose supplemented with 10% FBS and 250 μg/mL G418. HEK293-rP2X7 cells were grown in DMEM/F-12 supplemented with 10% FBS, 1 mM CaCl2, 2 mM MgCl2, 2 mM L-Glutamine and 500 μg/ml G418. Cells were split such that they never became >70% confluent.
On the day prior to the experiment, 1321N1-hP2X7 or HEK293-rP2X7 cells were released into suspension with calcium-free PBS+Versene and washed by centrifugation with calcium-free PBS to remove the Versene. Cells were resuspended in growth medium at a density of 2.5×10^5 cells/mL and seeded into black walled, clear bottom 96 well plates (50,000 cells/well) approximately 18 hr prior to intracellular calcium flux experiments.
On the day of the experiment, plates were washed with FLIPR buffer (calcium- and magnesium-free Hank's Balanced Salt Solution (HBSS) supplemented with 10 mM Hepes, 2.5 mM probenecid and 2 mM calcium chloride) using a BIO-TEK 96 channel plate washer and incubated with […] fluo-3 dye at 37° C. for one hr. The dye was then removed by plate washing and the cells were allowed to equilibrate for 20 min at room temperature with antagonist or vehicle (FLIPR buffer). Agonist (100 μM BzATP final concentration for hP2X7; 5 μM BzATP final concentration or rP2X7) was added online with the FLIPR and fluorescence measurements made at 1 sec intervals for 60 sec followed by 3 sec intervals for a further 4 min (5 min total). A final addition of 5 μM ionomycin was made and the maximal BzATP-evoked fluorescence normalized to the maximal ionomycin-evoked fluorescence.

Structures are written as SMILES.

By melting point is commonly meant the temperature, or range, at which the solid turns liquid. For the molecule `CS(=O)(=O)c1ccc(C(Cc2ccccc2Cl)C(=O)Nc2nc3ccccc3o2)cc1` (stereo not shown) [Compound I-5, N-Benzooxazol-2-yl-3-(2-chloro-phenyl)-2-(4-methanesulfonyl-phenyl)-propionamide], the melting point lay within 107 to 108 °C. The IC50 at human P2X7 was 537 nM.

For `CS(=O)(=O)c1ccc(C(Cc2ccccc2F)C(=O)Nc2nc3ccccc3o2)cc1` (stereo not shown) [Compound I-8, N-Benzooxazol-2-yl-3-(2-fluoro-phenyl)-2-(4-methanesulfonyl-phenyl)-propionamide], the melting point is 99 to 100 °C. Further, the IC50 on human P2X7 is 87.1 nM.

`CS(=O)(=O)c1cccc(C(Cc2ccc(F)cc2)C(=O)Nc2nc3ccccc3o2)c1` (stereo not shown) [Compound I-12, N-Benzooxazol-2-yl-3-(4-fluoro-phenyl)-2-(3-methanesulfonyl-phenyl)-propionamide] registered a melting point of 99 to 100 °C. Besides, the IC50 on human P2X7 is 741 nM.

In turn, `O=C(NCCO)c1ccc(C(Cc2ccc(F)cc2)C(=O)Nc2nc3ccccc3o2)cc1` (stereo not shown) [Compound I-33, 4-[1-(Benzooxazol-2-ylcarbamoyl)-2-(4-fluoro-phenyl)-ethyl]-N-(2-hydroxy-ethyl)-benzamide] gave a melting point of 134 to 136 °C. The IC50 on human P2X7 was 347 nM.

Consider `CS(=O)(=O)c1ccc(C(Cc2ccc(F)cc2)C(=O)Nc2nc3ccccc3o2)cc1` (stereo not shown) [Compound I-7, N-Benzooxazol-2-yl-3-(4-fluoro-phenyl)-2-(4-methanesulfonyl-phenyl)-propionamide], for which the melting point fell in the range of 109 to 110 °C. Also, the IC50 on human P2X7 was 63.1 nM.

`CCOC(=O)c1ccc(C(Cc2ccc(F)cc2)C(=O)Nc2nc3ccccc3o2)cc1` (stereo not shown) [Compound I-30, 4-[1-(Benzooxazol-2-ylcarbamoyl)-2-(4-fluoro-phenyl)-ethyl]-benzoic acid ethyl ester] came in with a melting point of 122 to 125 °C. The IC50 at human P2X7 was 457 nM.

Molecule `CS(=O)(=O)c1ccc(C(Cc2ccc(F)cc2)C(=O)Nc2nc3ccc(CO)cc3o2)cc1` (stereo not shown) [Compound I-20, 3-(4-Fluoro-phenyl)-N-(6-hydroxymethyl-benzooxazol-2-yl)-2-(4-methanesulfonyl-phenyl)-propionamide] registered a melting point of 128 to 130 °C. For the same molecule, the IC50 on human P2X7 was 20.4 nM.

The molecule `CN(C)CCNC(=O)c1ccc(C(Cc2ccc(F)cc2)C(=O)Nc2nc3ccccc3o2)cc1` (stereo not shown) [Compound I-34, 4-[1-(Benzooxazol-2-ylcarbamoyl)-2-(4-fluoro-phenyl)-ethyl]-N-(2-dimethylamino-ethyl)-benzamide] had a melting point of 149 to 151 °C. Besides, the IC50 at human P2X7 is 389 nM.

`O=C(Nc1nc2ccccc2o1)C(Cc1ccc(F)cc1)c1ccc(F)cc1F` (stereo not shown) [Compound I-29, N-Benzooxazol-2-yl-2-(2,4-difluoro-phenyl)-3-(4-fluoro-phenyl)-propionamide] displayed a melting point of 177.5 to 177.9 °C. The IC50 on human P2X7 was 501 nM.

The molecule `CS(=O)(=O)c1ccc(C(Cc2ccccc2)C(=O)Nc2nc3ccccc3o2)cc1` (stereo not shown) [Compound I-4, N-Benzooxazol-2-yl-2-(4-methanesulfonyl-phenyl)-3-phenyl-propionamide] returned a melting point of 118 to 119 °C. In addition, the IC50 at human P2X7 was 81.3 nM.

In turn, `Cc1ccccc1CC(C(=O)Nc1nc2cc(Cl)ccc2o1)c1ccc(S(C)(=O)=O)cc1` (stereo not shown) [Compound I-3, N-(5-Chloro-benzooxazol-2-yl)-2-(4-methanesulfonyl-phenyl)-3-o-tolyl-propionamide] returned a melting point of 184 to 185 °C. Besides, at human P2X7, the IC50 is 1170 nM.

`COCc1cnc(NC(=O)C(Cc2ccc(F)cc2)c2ccc(S(C)(=O)=O)cc2)cn1` (stereo not shown) [Compound I-21, 3-(4-Fluoro-phenyl)-2-(4-methanesulfonyl-phenyl)-N-(5-methoxymethyl-pyrazin-2-yl)-propionamide] came in with a melting point of 69 to 82.3 °C. At human P2X7, the IC50 was 646 nM.

`CS(=O)(=O)c1ccc(C(Cc2ccc(F)cc2)C(=O)Nc2cncc(Cl)n2)cc1` (stereo not shown) [Compound I-25, N-(6-Chloro-pyrazin-2-yl)-3-(4-fluoro-phenyl)-2-(4-methanesulfonyl-phenyl)-propionamide] yielded a melting point of 191.6 to 192.7 °C. Also, the IC50 on human P2X7 is 851 nM.

On to `CCOC(=O)c1cnc(NC(=O)C(Cc2ccc(F)cc2)c2ccc(S(C)(=O)=O)cc2)cn1` (stereo not shown) [Compound I-15, 5-[3-(4-Fluoro-phenyl)-2-(4-methanesulfonyl-phenyl)-propionylamino]-pyrazine-2-carboxylic acid ethyl ester], for which the melting point is 106 to 107 °C. The IC50 at human P2X7 was 224 nM.

Turning to `COc1ccc(CC(C(=O)Nc2nc3ccccc3o2)c2ccc(S(C)(=O)=O)cc2)cc1` (stereo not shown) [Compound I-9, N-Benzooxazol-2-yl-2-(4-methanesulfonyl-phenyl)-3-(4-methoxy-phenyl)-propionamide], the melting point lay in the range of 101.9 to 105.9 °C. The IC50 at human P2X7 is 229 nM.

As for `CSc1cnc(NC(=O)C(Cc2ccc(F)cc2)c2ccc(S(C)(=O)=O)cc2)cn1` (stereo not shown) [Compound I-14, 3-(4-Fluoro-phenyl)-2-(4-methanesulfonyl-phenyl)-N-(5-methylsulfanyl-pyrazin-2-yl)-propionamide], the melting point lay in the range of 187.7 to 188.4 °C. On human P2X7, the IC50 was 1120 nM.

`Cc1cnc(NC(=O)C(Cc2ccc(F)cc2)c2ccc(S(C)(=O)=O)cc2)cn1` (stereo not shown) [Compound I-19, 3-(4-Fluoro-phenyl)-2-(4-methanesulfonyl-phenyl)-N-(5-methyl-pyrazin-2-yl)-propionamide] yielded a melting point of 172.4 to 175.3 °C. In addition, the IC50 on human P2X7 was 708 nM.

For the origin of these results see patent US20120149718A1, “Amido Compounds” (priority 2010, published 2012).
